Experimental data as given in patent US20250025550A1, “ADJUVANT COMPOUNDS AND FORMULATIONS” (ADJUVANCE TECHNOLOGIES, INC., priority 2021, published 2025).
Several values for one entry are separate records, joined by “and”; a condition that tells them apart may be missing. Equal entries are not always repeated.

Assays:
[1] = Optical density (clarity) of TQL-1055 in HP-β-CD solution; type: physicochemical; conditions: for Dissolution of TQL-1055: heat and sonication one hour at 60° C.
Description: (§1) Two solutions were prepared: (1) 15% w/v HP-β-CD in 1 ml of PBS, add TQL-1055 (crushed) to achieve 1 mg/ml; and (2) 20% w/v HP-β-CD in 1 ml of PBS; add TQL-1055 (crushed) to achieve 1 mg/ml. Both solutions were solubilized using heat and sonication for one hour at 60° C.
Optical density shown below. Clarity is defined against background solvent optical density ([…]):
Three solutions were prepared: (1) 15% w/v HP-β-CD in 1 ml of PBS, add TQL-1055 (crushed) to achieve 2 mg/ml; (2) 20% w/v HP-β-CD in 1 ml of PBS; add TQL-1055 (crushed) to achieve 2 mg/ml; and (3) 25% w/v HP-β-CD in 1 ml of PBS; add TQL-1055 (crushed) to achieve 2 mg/ml. Solutions were solubilized using heat and sonication for one hour at 60° C. […]

[2] = pH of TQL-1055 HP-β-CD solutions (Example 1); type: physicochemical
Description: as §1

[3] = Stability of TQL-1055 in HP-β-CD solution: clarity (optical density); type: physicochemical; conditions: 1 mg/ml TQL-1055, 20% w/v HP-β-CD in PBS
Description: (§2) Solutions containing 20% w/v HP-β-CD and 1 mg/ml dissolved TQL-1055 were prepared according to the following procedure: (1) crush TQL-1055 and sonicate in PBS; (2) add HP-β-CD solution to create a final concentration of 1 mg/ml TQL-1055, 20% HP-β-CD in PBS buffer (3) sonicate for ˜30-60 minutes at 60C (4) obtain a clear solution having 1 mg/ml TQL-1055; 20% w/v HP-R-CD. Control samples containing 20% HP-β-CD were prepared. Optical density and pH were measured at t=1 day, 1 week, 1 month, and 2 months. HPLC was conducted at t=1 day, 1 week, 1 month, and 2 months.

[4] = Stability of TQL-1055 in HP-β-CD solution: pH; type: physicochemical; conditions: 1 mg/ml TQL-1055, 20% w/v HP-β-CD in PBS
Description: as §2

[5] = Stability of TQL-1055 in HP-β-CD solution: HPLC; type: physicochemical; parameters: unit not given here; conditions: 1 mg/ml TQL-1055, 20% w/v HP-β-CD in PBS
Description: as §2

[6] = Solubility in water at physiological pH; type: physicochemical; conditions: free acid form
CD-i mice = conditions: mouse, in vivo
[7] = 1 mg/ml TQL-1055 in 15% w/v HP-β-CD in PBS, 48 hours (stored at 5° C.)
[8] = 1 mg/ml TQL-1055 in 15% w/v HP-β-CD in PBS, 48 hours (stored at RT)
[9] = 1 mg/ml TQL-1055 in 20% w/v HP-β-CD in PBS, 48 hours (stored at 5° C.)
[10] = 1 mg/ml TQL-1055 in 20% w/v HP-β-CD in PBS, 48 hours (stored at RT)
[11] = 2 mg/ml in 15% w/v HP-β-CD in PBS (solution 1)

Question: For CC1O[C@@H](OC2C(O)[C@@H](NC(=O)CCCCCCCCCCC(=O)O)C(CO)O[C@H]2OC(=O)[C@]23CCC(C)(C)CC2C2=CCC4C5(C)CC[C@H](O)C(C)(C=O)C5CCC4(C)C2(C)CC3O)C(O)C(O)[C@H]1O[C@@H]1OC[C@@H](O)C(O)C1O (stereo partly shown) [TQL-1055], which Optical density ([1]; 1 mg/ml TQL-1055 in 15% w/v HP-β-CD in PBS, 0 hour (after sonication)) is on record?
Answer: 0.055

Question: What about the Optical density ([1]; 1 mg/ml TQL-1055 in 15% w/v HP-β-CD in PBS, 24 hours (stored at 5° C.)) of the same compound?
Answer: 0.051

Question: What about the Optical density ([1]; 1 mg/ml TQL-1055 in 15% w/v HP-β-CD in PBS, 24 hours (stored at RT)) of the same compound?
Answer: 0.051

Question: And the Optical density [1, 7]?
Answer: 0.052

Question: And the Optical density [1, 8]?
Answer: 0.051

Question: And the Optical density ([1]; 1 mg/ml TQL-1055 in 20% w/v HP-β-CD in PBS, 0 hour (after sonication))?
Answer: 0.058

Question: What about the Optical density ([1]; 1 mg/ml TQL-1055 in 20% w/v HP-β-CD in PBS, 24 hours (stored at 5° C.)) of the same compound?
Answer: 0.050

Question: What about the Optical density ([1]; 1 mg/ml TQL-1055 in 20% w/v HP-β-CD in PBS, 24 hours (stored at RT)) of the same compound?
Answer: 0.050

Question: What about the Optical density [1, 9] of the same compound?
Answer: 0.056

Question: What about the Optical density [1, 10] of the same compound?
Answer: 0.051

Question: What about the “Dissolution of TQL-1055” value ([1]; 1 mg/ml in 15% and in 20% w/v HP-β-CD in PBS) of the same compound?
Answer: dissolved completely

Question: What about the Optical density ([1]; 2 mg/ml TQL-1055 in 15% w/v HP-β-CD in PBS, 0 hour (after sonication), replicates) of the same compound?
Answer: 0.083, 0.083, (2×) and 0.083 (n = 3)

Question: What about the Optical density ([1]; 2 mg/ml TQL-1055 in 15% w/v HP-β-CD in PBS, 24 hours (stored at RT), replicates) of the same compound?
Answer: 0.081, 0.081

Question: And the Optical density ([1]; 2 mg/ml TQL-1055 in 15% w/v HP-β-CD in PBS, 48 hours (stored at RT), replicates)?
Answer: 0.067 and 0.068

Question: What about the Optical density ([1]; 2 mg/ml TQL-1055 in 20% w/v HP-β-CD in PBS, 0 hour (after sonication), replicates) of the same compound?
Answer: 0.061 and 0.066 and 0.068 (n = 3)

Question: And the Optical density ([1]; 2 mg/ml TQL-1055 in 20% w/v HP-β-CD in PBS, 24 hours (stored at RT), replicates)?
Answer: 0.054, 0.054

Question: What about the Optical density ([1]; 2 mg/ml TQL-1055 in 20% w/v HP-β-CD in PBS, 48 hours (stored at RT), replicates) of the same compound?
Answer: 0.049 and 0.053

Question: What about the Optical density ([1]; 2 mg/ml TQL-1055 in 25% w/v HP-β-CD in PBS, 0 hour (after sonication), replicates) of the same compound?
Answer: 0.052 (n = 3) and 0.049 and 0.051

Question: And the Optical density ([1]; 2 mg/ml TQL-1055 in 25% w/v HP-β-CD in PBS, 24 hours (stored at RT), replicates)?
Answer: 0.053 and 0.054

Question: And the Optical density ([1]; 2 mg/ml TQL-1055 in 25% w/v HP-β-CD in PBS, 48 hours (stored at RT), replicates)?
Answer: 0.057 and 0.055

Question: What about the Clarity of solution [1, 11] of the same compound?
Answer: not completely clear

Question: What about the “Optical density (OD)” value [1, 11] of the same compound?
Answer: > 0.060

Question: And the “Dissolution of TQL-1055” value ([1]; 2 mg/ml in 20% (solution 2) and 25% (solution 3) w/v HP-β-CD in PBS)?
Answer: dissolved completely

Question: And the pH [2, 7]?
Answer: (pH = 7.26)

Question: And the pH [2, 8]?
Answer: (pH = 7.28)

Question: And the pH [2, 9]?
Answer: (pH = 7.28)

Question: What about the pH [2, 10] of the same compound?
Answer: (pH = 7.21)

Question: What about the “Clarity (OD)” value ([3]; 5 C., 1 month) of the same compound?
Answer: 0.0485 and 0.051

Question: What about the “Clarity (OD)” value ([3]; 5 C., 1 week) of the same compound?
Answer: 0.051 and 0.053

Question: What about the “Clarity (OD)” value ([3]; 5 C., 2 month) of the same compound?
Answer: 0.058 and 0.050

Question: And the “Clarity (OD)” value ([3]; 5 C., Day 1)?
Answer: 0.054 and 0.053

Question: What about the “Clarity (OD)” value ([3]; 25 C., 1 month) of the same compound?
Answer: 0.053 and 0.0455

Question: And the “Clarity (OD)” value ([3]; 25 C., 1 week)?
Answer: 0.049 and 0.052

Question: What about the “Clarity (OD)” value ([3]; 25 C., 2 month) of the same compound?
Answer: 0.051 and 0.05

Question: And the “Clarity (OD)” value ([3]; 25 C., Day 1)?
Answer: 0.052 and 0.050

Question: And the “Clarity (OD)” value ([3]; −20 C., 1 month)?
Answer: 0.049 and 0.0475

Question: And the “Clarity (OD)” value ([3]; −20 C., 1 week)?
Answer: 0.05 and 0.051

Question: And the “Clarity (OD)” value ([3]; −20 C., 2 month)?
Answer: 0.054

Question: What about the “Clarity (OD)” value ([3]; −20 C., Day 1) of the same compound?
Answer: 0.056 and 0.052

Question: And the pH ([4]; 5 C., 1 month)?
Answer: 7.81 and 7.32

Question: And the pH ([4]; 5 C., 1 week)?
Answer: 7.32 and 7.25

Question: What about the pH ([4]; 5 C., 2 month) of the same compound?
Answer: 7.35 and 7.48

Question: What about the pH ([4]; 5 C., Day 1) of the same compound?
Answer: 7.47 and 7.43

Question: And the pH ([4]; 25 C., 1 month)?
Answer: 7.82 and 7.50

Question: And the pH ([4]; 25 C., 1 week)?
Answer: 7.35 and 7.00

Question: And the pH ([4]; 25 C., 2 month)?
Answer: 7.51 and 7.44

Question: What about the pH ([4]; 25 C., Day 1) of the same compound?
Answer: 7.45 and 7.47

Question: What about the pH ([4]; −20 C., 1 month) of the same compound?
Answer: 7.24 and 7.53

Question: What about the pH ([4]; −20 C., 1 week) of the same compound?
Answer: 7.19 and 7.26

Question: What about the pH ([4]; −20 C., 2 month) of the same compound?
Answer: 7.41 and 7.46

Question: What about the pH ([4]; −20 C., Day 1) of the same compound?
Answer: 7.35 and 7.41

Question: What about the HPLC ([5]; 5 C., 1 month) of the same compound?
Answer: 106.1 and 107.9

Question: What about the HPLC ([5]; 5 C., 1 week) of the same compound?
Answer: 104.4 and 108.9

Question: And the HPLC ([5]; 5 C., 2 months)?
Answer: 109 and 105

Question: And the HPLC ([5]; 5 C., Day 1)?
Answer: 105.4 and 109.4

Question: What about the HPLC ([5]; 25 C., 1 month) of the same compound?
Answer: 108.7 and 107.5

Question: And the HPLC ([5]; 25 C., 1 week)?
Answer: 109.2 and 106.9

Question: And the HPLC ([5]; 25 C., 2 months)?
Answer: 105

Question: And the HPLC ([5]; 25 C., Day 1)?
Answer: 106.1 and 109.4

Question: What about the HPLC ([5]; −20 C., 1 month) of the same compound?
Answer: 109.6

Question: What about the HPLC ([5]; −20 C., 2 months) of the same compound?
Answer: 105.3 and 102

Question: And the HPLC ([5]; −20 C., Day 1)?
Answer: 100 and 105.3

Question: And the solubility in water [6]?
Answer: poor solubility in water at physiological pH

Question: And the “Mortality (follow-on studies, text)” value (CD-i mice)?
Answer: did not result in mortality
